Where a name gives a salt, the structure may show the parent alone.
Test system: MTT (mouse pheochromocytoma)
Assay: IC50 of cell viability (ATP content)
Conditions: (24 or 48 h)
How it was run: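 MTT mouse pheochromocytoma cells (5 µl of 200,000 cells/ml per well, white 1536-well plates, DMEM with 5% FBS and 1% horse serum) were cultured overnight at 37°C, 5% CO2. They then received 23 nl library compound in DMSO by pintool at 8 concentrations (final 0.5 nM to 46 µM) for 24 or 48 hrs. CellTiter-Glo ATP luminescence was read after 15 minutes. Signals were normalised to positive-control (100% inhibition) and DMSO (0%) wells, and IC50 came from a four-parameter logistic fit.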

Row | IC50 of cell viability [µM] | SMILES
1 | > 46 | CN1CCC[C@@H]1Cc1c[nH]c2ccc(CC[S+](=O)([O-])c3ccccc3)cc12 [ELETRIPTAN HYDROBROMIDE]
2 | > 46 | O=c1oc2c(O)c(O)cc3c(=O)oc4c(O)c(O)cc1c4c23 [ELLAGIC ACID]
3 | > 46 | CCOCCn1c(N2CCCN(C)CC2)nc2ccccc21 [EMEDASTINE DIFUMARATE]
4 | > 46 | CCOC(=O)c1ccc(OCCN2C[C@H](O)[C@@H](O)[C@H](O)[C@H]2CO)cc1 [EMIGLITATE]
5 | > 46 | Nc1nc(=O)n([C@@H]2CS[C@H](CO)O2)cc1F [EMTRICITABINE]
6 | > 46 | CCCCCCCCCCCCCCCCCCCCCC(=O)Nc1ccn([C@@H]2O[C@H](CO)[C@@H](O)[C@@H]2O)c(=O)n1 [ENOCITABINE]
7 | > 46 | CC1(C)[C@@H](O)CC[C@@]2(C)[C@H]1CC[C@]3(C)[C@@H]2C(=O)\C=C/4[C@@H]5C[C@](C)(CC[C@]5(C)CC[C@@]34C)C(O)=O [ENOXOLONE]
8 | > 46 | CCN1CCN(CC1)C2=CC3=C(C=C2F)C(=O)C(=C/N3C4CC4)\C(O)=O [ENROFLOXACIN]
9 | > 46 | C=C1C(n2cnc3c(O)nc(N)nc32)C[C@H](O)[C@H]1CO (stereo partly specified) [ENTECAVIR]
10 | > 46 | Cc1ccc(/C=C2/C(=O)C3(C)CCC2C3(C)C)cc1 (stereo unspecified) [ENZACAMENE]
11 | > 46 | O=C([O-])c1ccccc1-c1c2cc(Br)c(=O)c(Br)c-2oc2c(Br)c([O-])c(Br)cc12 [EOSINE YELLOWISH]
12 | > 46 | CCc1ccc(C(=O)C(C)CN2CCCCC2)cc1 (stereo unspecified) [EPERISONE HYDROCHLORIDE]
13 | > 46 | Oc1cc(O)c2c(c1)OC(c1ccc(O)c(O)c1)C(O)C2 (stereo unspecified) [EPICATECHIN]
14 | > 46 | CC(C)CCC[C@@H](C)[C@H]1CC[C@H]2[C@@H]3CC[C@@H]4C[C@H](O)CC[C@]4(C)[C@H]3CC[C@]12C [EPIDIHYDROCHOLESTERIN]
15 | > 46 | NC1=NCC2c3ccccc3Cc3ccccc3N12 (stereo unspecified) [EPINASTINE HYDROCHLORIDE]
16 | > 46 | CNC[C@H](O)c1ccc(O)c(O)c1 [EPINEPHRINE]
17 | > 46 | CCCCC[C@H](O)/C=C/[C@@H]1[C@H]2C/C(=C/CCCC(=O)[O-])O[C@H]2C[C@H]1O [EPOPROSTENOL SODIUM]
18 | > 46 | CCOC(CN1CCN(CC(C)C(=O)c2ccccc2)CC1)c1ccccc1 (stereo unspecified) [EPRAZINONE HYDROCHLORIDE]
19 | > 46 | N=C(N)NCCCC[C@@H]1NC(=O)CCSSC[C@@H](C(N)=O)NC(=O)[C@@H]2CCCN2C(=O)[C@H](Cc2c[nH]c3ccccc23)NC(=O)[C@H](CC(=O)O)NC(=O)CNC1=O [EPTIFIBATIDE]
20 | > 46 | C=C1CCC(O)C/C1=C/C=C1\CCC[C@]2(C)[C@@H]([C@H](C)/C=C/[C@H](C)C(C)C)CC[C@@H]12 (stereo partly specified) [ERGOCALCIFEROL]

The remaining lines, values behind:

Row | SMILES | IC50 of cell viability [µM]
21 | C[N+]1(C)CCC(=C(c2ccccc2)c2ccccc2)CC1 [Diphemanil methylsulfate] | > 46
22 | CN(C)CCOC(c1ccccc1)c1ccccc1 [Diphenhydramine] | > 46
23 | OC(CCCN1CCCCC1)(c1ccccc1)c1ccccc1 [Diphenidol] | > 46
24 | CCOC(=O)C1(c2ccccc2)CCN(CCC(C#N)(c2ccccc2)c2ccccc2)CC1 [Diphenoxylate] | > 46
25 | O=C(Oc1ccccc1)c1cccc(C(=O)Oc2ccccc2)c1 [Diphenyl isophthalate] | > 46
26 | CN1CCC(OC(c2ccccc2)c2ccccc2)CC1 [Diphenylpyraline hydrochloride] | > 46
27 | CNC[C@H](O)c1ccc(OC(=O)C(C)(C)C)c(OC(=O)C(C)(C)C)c1 [Dipivefrin hydrochloride] | > 46
28 | Cn1c(=O)c2c(ncn2C[C@@H](O)CO)n(C)c1=O [Diprophylline] | > 46
29 | [Na+].CN(C[S]([O-])(=O)=O)\C1=C(/C)N(C)N(C1=O)C2=CC=CC=C2 [Dipyrone] | > 46
30 | C[Si](C)(C)O[Si](C)(C)C [Disiloxane, hexamethyl-] | > 46
31 | CC(C)N(CC[C@@](C(N)=O)(c1ccccc1)c1ccccn1)C(C)C [Disopyramide] | > 46
32 | CCOC(=S)SSC(=S)OCC [Dixanthogen] | > 46
33 | CC(=O)O[C@@]12CO[C@@H]1C[C@H](O)[C@]3(C)[C@@H]2[C@H](OC(=O)C4=CC=CC=C4)[C@]5(O)C[C@H](OC(=O)C(O)[C@@H](NC(=O)OC(C)(C)C)C6=CC=CC=C6)C(=C(/[C@@H](O)C3=O)C5(C)C)/C (stereo partly specified) [Docetaxel] | > 46
34 | CCCCCCCCCC(CC)c1ccc(S(=O)(=O)[O-])cc1.[Na+] (stereo unspecified) [Dodecylbenzenesulfonic acid, sodium salt] | > 46
35 | CN(CCOc1ccc(NS(C)(=O)=O)cc1)CCc1ccc(NS(C)(=O)=O)cc1 [Dofetilide] | > 46
36 | Oc1ccc(CCNCCCCCCNCCc2ccccc2)cc1O [Dopexamine] | > 46
37 | CO[C@H]1C[C@@H](O[C@@H]2[C@@H](C)O[C@@H](O[C@@H]3/C(C)=C/CC4C[C@@H](C[C@]5(C=C[C@@H](C)[C@H](C6CCCCC6)O5)O4)OC(=O)[C@@H]4C=C(C)[C@@H](O)[C@H]5OC/C(=C\C=C\[C@@H]3C)[C@]54O)C[C@H]2OC)O[C@@H](C)[C@@H]1O [Doramectin] | > 46
38 | CCN[C@@H]1C[C@H](C)[S+](=O)([O-])c2sc([S+](N)(=O)[O-])cc21 [Dorzolamide hydrochloride] | > 46
39 | CN(C)CC/C=C1\c2ccccc2CSc2ccccc21 [Dosulepin hydrochloride] | > 46
40 | COc1cc2nc(N3CCN(C(=O)[C@H]4COc5ccccc5O4)CC3)nc(N)c2cc1OC.C[S+](=O)([O-])O [Doxazosin mesylate] | > 46
41 | CN(C)CC/C=C1\c2ccccc2COc2ccccc21 [Doxepin hydrochloride] | > 46
42 | C[C@H]1O[C@H]([C@H](O)[C@@H]1O)N2\C=C(F)/C(=O)NC2=O [Doxifluridine] | > 46
43 | Cn1c(=O)c2c(ncn2CC2OCCO2)n(C)c1=O [Doxofylline] | > 46

Row | SMILES | IC50 of cell viability [µM]
44 | C[C@H]1[C@H]\2[C@H](O)[C@H]3[C@H](N(C)C)\C(=C(\C(N)=O)C(=O)[C@]3(O)\C(=C2C(=O)C4=C1C=CC=C4O)O)O [Doxycycline hydrochloride] | > 46
45 | CN(C)CCO[C@](C)(c1ccccc1)c1ccccn1.O=C(O)CCC(=O)O [Doxylamine succinate] | > 46
46 | Cc1ccc(O)c(-n2nc3ccccc3n2)c1 [Drometrizole] | > 46
47 | CCCCc1oc2ccc(N[S+](C)(=O)[O-])cc2c1C(=O)c1ccc(OCCCN(CCCC)CCCC)cc1 [Dronedarone] | > 46
48 | FC1=CC=C(C=C1)C(=O)CCCN2CC\C(=C/C2)N3C(=O)NC4=C3C=CC=C4 [Droperidol] | > 46
49 | NC(C(=O)O)C(O)c1ccc(O)c(O)c1 (stereo unspecified) [Droxidopa] | > 46
50 | C[C@]12C=CC(=O)N[C@@H]1CC[C@@H]1C2CC[C@]2(C)C(C(=O)Nc3cc(C(F)(F)F)ccc3C(F)(F)F)CC[C@@H]12 (stereo partly specified) [Dutasteride] | > 46
51 | CCCCOc1ccc(C(=O)CCN2CCCCC2)cc1 [Dyclonine hydrochloride] | > 46
52 | CC(=O)[C@@H]1CC[C@@H]2[C@@H]3\C=C/C4=C/C(=O)CC[C@@]4(C)[C@H]3CC[C@@]12C [Dydrogesterone] | > 46
53 | CC(C)c1cc2c(cc1[S+](=O)([O-])O)[C@@]1(C)CCC[C@@](C)(C(=O)O)[C@@H]1CC2 [ECABET SODIUM] | > 46
54 | CN1CCc2cc(Cl)c(O)cc2[C@H]2c3ccccc3CC[C@@H]21 [ECOPIPAMUM] | > 46
55 | O=C(O)CN(CCN(CC(=O)O)CC(=O)O)CC(=O)O [EDETATE CALCIUM DISODIUM] | > 46
56 | CC(O)CN(CCN(CC(C)O)CC(C)O)CC(C)O (stereo unspecified) [EDETOLUM] | > 46
57 | CCC1(CC2=C(O1)C=CC=C2)\C3=N\CCN3 (stereo unspecified) [EFAROXAN] | > 46
58 | O=C1Nc2ccc(Cl)cc2C(C#CC2CC2)(C(F)(F)F)O1 (stereo unspecified) [EFAVIRENZ] | > 46
59 | CCc1cc([S+](=O)([O-])[O][Na])c2cc(C(C)C)cccc1-2 [EGUALEN SODIUM] | > 46
60 | CC/C=C\C/C=C\C/C=C\C/C=C\C/C=C\CCCC(=O)O [EICOSAPENTAENOIC ACID] | > 46
61 | c1cc2c(c(N3CCNCC3)c1)OCCO2 [ELTOPRAZINUM] | > 46
62 | Cl\C1=C(/Cl)C2(Cl)C3C4CC(C5OC45)C3C1(Cl)C2(Cl)Cl (stereo unspecified) [ENDRIN] | > 46
63 | FC(F)OC(F)(F)C(F)Cl (stereo unspecified) [ENFLURANE] | > 46
64 | CNC(C)[C@@H](O)c1ccccc1.Cl (stereo partly drawn) [EPHEDRINE (1R,2S) HYDROCHLORIDE] | > 46
65 | C/C(=C\c1csc(C)n1)[C@@H]1C[C@@H]2O[C@]2(C)CCC[C@H](C)[C@H](O)[C@@H](C)C(=O)C(C)(C)[C@@H](O)CC(=O)O1 [EPOTHILONE B] | > 46
66 | CC(CO)NC(=O)C1C=C2c3cccc4[nH]cc(c34)CC2N(C)C1 (stereo unspecified) [ERGONOVINE] | > 46

Source: the supplement of paper PMC3974653
